Laboratory results from patent publication US10226453B2, “3-(1H-indol-2-yl)-1H-pyrazolo[4,3-B]pyridines and therapeutic uses thereof” (Samumed, LLC, priority 2015, dated 2019).

Experiments:
Format in all cases: cell-based
SW480 colon cancer cells = assay: Cell viability assay (CellTiter-Blue), SW480 colon cancer cells; conditions: Homo sapiens, 96 h, four days, CellTiter-Blue
Method: Representative compounds were screened using the following assay procedure to assess the effect on cell viability as described below.
Each compound was dissolved in DMSO as a 10 mM stock and used to prepare compound source plates. Serial dilution (1:3, 8-point dose-response curves from 10 μM to 0.0045 μM) and compound transfer was performed using the ECHO 550 (Labcyte, Sunnyvale, Calif.) into 96-well clear bottom, black-walled plates (Corning—Costar).
Approximately 2×10^3 SW480 colon cancer cells were seeded into each well and allowed to incubate in the presence or absence of compound for four days at 37° C./5% CO2. Eight replicates of DMSO-treated cells served as controls and cells treated with compound were performed in duplicate.
After incubation, 20 μL of CellTiter-Blue (Promega) was added to each well allowed to incubate for approximately 3 hours. This reagent was a buffered solution which contains resazurin, metabolically active cells were able to reduce rezarurin (blue) into resorufin (pink) which was highly fluorescent. This measured fluorescence was used as a readout for cell viability.
After incubation, the plates were read at Ex 560 nm Em 590 nm (Cytation 3, BioTek). Dose-response curves were generated and EC50 concentration values were calculated using non-linear regression curve fit in the GraphPad Prism (San Diego, Calif.) or Dotmatics' Studies Software (Bishops Stortford, UK). For EC50 of >10 μM, the percent inhibition at 10 μM is provided.

[1] = system: primary human fibroblasts derived from IPF patients (LL29 cells) treated with TGF-β1; assay: Inhibition of the fibrotic process: αSMA staining in TGF-β1 treated primary human fibroblasts from IPF patients (LL29 cells); conditions: Fibroblast, 96 h, TGF-β1 20 ng/mL, 4 days, % αSMA positive cells
Description: Representative compounds were screened using primary human fibroblasts (derived from IPF patients) treated with TGF-β1 to determine their ability to inhibit the fibrotic process.
Primary human fibroblasts derived from IPF patients (LL29 cells) [^1Xiaoqiu Liu, et. al., “Fibrotic Lung Fibroblasts Show Blunted Inhibition by cAMP Due to Deficient cAMP Response Element-Binding Protein Phosphorylation”, Journal of Pharmacology and Experimental Therapeutics (2005), 315(2), 678-687; ^2Watts, K. L., et. al., “RhoA signaling modulates cyclin D1 expression in human lung fibroblasts; implications for idiopathic pulmonary fibrosis”, Respiratory Research (2006), 7(1), 88] were obtained from American Type Culture Collection (ATCC) and expanded in F12 medium supplemented with 15% Fetal Bovine Serum and Penicillin/Streptomycin.
Each compound was dissolved in DMSO as a 10 mM stock and used to prepare compound source plates. Serial dilution (1:2, 11-point dose-response curves from 10 μM to 1.87 nM) and compound transfer was performed using the ECHO 550 (Labcyte, Sunnyvale, Calif.) into 384-well clear bottom assay plates (Greiner Bio-One) with appropriate DMSO backfill for a final DMSO concentration of 0.1%. LL29 cells are plated at 1,500 cells/well in 80 μL/well F12 medium supplemented with 1% Fetal Bovine Serum. One hour after addition of the cells, TGF-β1 (Peprotech; 20 ng/mL) was added to the plates to induce fibrosis (ref. 1 and 2 above). Wells treated with TGF-β1 and containing DMSO were used as controls. Cells were incubated at 37° C. and 5% CO2 for 4 days. Following incubation for 4 days, SYTOX green nucleic acid stain (Life Technologies [Thermo Fisher Scientific]) was added to the wells at a final concentration of 1 μM and incubated at room temperature for 30 min. Cells were then fixed using 4% formaldehyde (Electron Microscopy Sciences), washed 3 times with PBS followed by blocking and permeabilization using 3% Bovine Serum Albumin (BSA; Sigma) and 0.3% Triton X-100 (Sigma) in PBS. Cells were then stained with antibody specific to α-smooth muscle actin (αSMA; Abcam) (ref. 1 and 2 above) in 3% Bovine Serum Albumin (BSA; Sigma) and 0.3% Triton X-100 (Sigma) in PBS, and incubated overnight at 4° C. Cells were then washed 3 times with PBS, followed by incubation with Alexa Flor-647 conjugated secondary antibody (Life Technologies [Thermo Fisher Scientific]) and DAPI at room temperature for 1 hour. Cells were then washed 3 times with PBS and plates were sealed for imaging. αSMA staining was imaged by excitation at 630 nm and emission at 665 nm and quantified using the Compartmental Analysis program on the CellInsight CX5 (Thermo Scientific). Dead or apoptotic cells were excluded from analysis based on positive SYTOX green staining. % of total cells positive for αSMA were counted in each well and normalized to the average of 11 wells treated with TGF-β1 on the same plate using Dotmatics' Studies Software. The normalized averages (fold change over untreated) of 3 replicate wells for each compound concentration were used to create dose-responses curves and EC50 values were calculated using non-linear regression curve fit in the Dotmatics' Studies Software. For EC50 of >10 μM, the percent inhibition at 10 μM is provided.

IL-6 (THP-1 cells) = assay: IL-6 inhibition in LPS-stimulated THP-1 human monocyte cells (HTRF); conditions: LPS 500 ng/mL, 22 hours, IL6 HTRF
Method: Human monocyte cell line (THP-1 cells; Catalog # TIB-202, ATCC, Manassas, Va.) were cultured in Roswell Park Memorial Institute (RPMI) 1640 Medium (Catalog #21870-100, Buffalo, N.Y.) with 1% L-glutamine, 1% HEPES, 1% Sodium Pyruvate, 2% Sodium Bicarbonate supplemented with 100 units/mL penicillin, 50 μg/mL streptomycin, 2-mercaptoethanol (0.05 mM) [basal medium] and 10% fetal bovine serum (Catalog #16140089, Life Technologies, Carlsbad, Calif.) at 37° C. and 5% CO2.
THP-1 cells were cultured in basal media with 1% FBS for 24 hours before the start of the assay. Each compound was dissolved in DMSO as a 10 mM stock and used to prepare compound source plates. Serial dilution (1:3, 10-point dose-response curves starting from 10 μM) and compound transfer was performed using the ECHO 550 (Labcyte, Sunnyvale, Calif.) into 384-well white low volume assay plates (Greiner Bio-One) with appropriate DMSO backfill for a final DMSO concentration of 0.1%. THP-1 cells were plated at 5000 cells/well in the 384-well plates and incubated at 37° C. for 2 h. 500 ng/mL of LPS was added after 2 hours and cells were incubated for another 22 hours at 37° C. Plates were spun in a centrifuge for 1 minute at […] and a mixture of anti-IL6 XL665, and anti-IL6 Cryptate diluted in reconstitution buffer (Cisbio Inc.) was added to each well. Following incubation for 3 hrs at room temperature, Homogeneous Time-Resolved Fluorescence (HTRF) was measured using the Envision (Perkin Elmer) at 665 nm and […]. The ratio of fluorescence at 665 nm to 620 nm was used as a readout for IL6 quantification. All samples were processed in duplicate. Readings were normalized to DMSO treated cells and normalized activities were utilized for EC50 calculations using the dose-response log (inhibitor) vs. response-variable slope (four parameters) nonlinear regression feature available in GraphPad Prism 5.0 (or Dotmatics). For EC50 of >10 μM, the percent inhibition at 10 μM is provided.

[2] = system: Wnt activity (Sp5-Luc reporter, SW480 colon carcinoma cells); assay: Wnt activity screening assay: Sp5-Luc reporter gene in SW480 colon carcinoma cells; conditions: Homo sapiens, overnight incubation, 10-point curve from 10 μM
Description: The screening assay for Wnt activity is described as follows. Reporter cell lines can be generated by stably transducing cancer cell lines (e.g., colon cancer) or primary cells (e.g., IEC-6 intestinal cells) with a lentiviral construct that includes a Wnt-responsive promoter driving expression of the firefly luciferase gene.
SW480 colon carcinoma cells were transduced with a lentiviral vector expressing luciferase with a human Sp5 promoter consisting of a sequence of eight TCF/LEF binding sites. SW480 cells stably expressing the Sp5-Luc reporter gene and a hygromycin resistance gene were selected by treatment with 150 μg/mL of hygromycin for 7 days. These stably transduced SW480 cells were expanded in cell culture and used for all further screening activities. Each compound was dissolved in DMSO as a 10 mM stock and used to prepare compound source plates. Serial dilution (1:3, 10-point dose-response curves starting from 10 μM) and compound transfer was performed using the ECHO 550 (Labcyte, Sunnyvale, Calif.) into 384-well white solid bottom assay plates (Greiner Bio-One) with appropriate DMSO backfill for a final DMSO concentration of 0.1%. For Sp5-Luc reporter gene assays, the cells were plated at 4,000 cells/well in 384-well plates with medium containing 1% fetal bovine serum and incubated overnight at 37° C. and 5% CO2. Following incubation, 20 μl of BrightGlo luminescence reagent (Promega) was added to each well of the 384-well assay plates. The plates were placed on an orbital shaker for 2 min and then luminescence was quantified using the Envision (Perkin Elmer) plate reader. Readings were normalized to DMSO only treated cells, and normalized activities were utilized for EC50 calculations using the dose-response log (inhibitor) vs. response-variable slope (four parameters) nonlinear regression feature available in GraphPad Prism 5.0 (or Dotmatics). For EC50 of >10 μM, the percent inhibition at 10 μM is provided.

| Structure (SMILES) | EC50 (SW480 colon cancer cells) [nM] | EC50 [1] [nM] | EC50 (IL-6 (THP-1 cells)) [nM] | EC50 [2] [nM] |
| --- | --- | --- | --- | --- |
| CC(C)Nc1cncc(-c2ccc3[nH]nc(-c4cc5ncccc5[nH]4)c3n2)c1 [Compound 516, 5-(3-(1H-Pyrrolo[3,2-b]pyridin-2-yl)-1H-pyrazolo[4,3-b]pyridin-5-yl)-N-isopropylpyridin-3-amine] | 145 | 1970 | 37 | 61 |
| CCCCC(=O)Nc1cncc(-c2ccc3[nH]nc(-c4cc5ncccc5[nH]4)c3n2)c1 [Compound 523, N-(5-(3-(1H-Pyrrolo[3,2-b]pyridin-2-yl)-1H-pyrazolo[4,3-b]pyridin-5-yl)pyridin-3-yl)pentanamide] | 943 | 697 | 20 | 550 |
| Cn1cc(-c2ccc3[nH]nc(-c4cc5c(-c6cccc(F)c6)cccc5[nH]4)c3n2)cn1 [Compound 536, 3-(4-(3-Fluorophenyl)-1H-indol-2-yl)-5-(1-methyl-1H-pyrazol-4-yl)-1H-pyrazolo[4,3-b]pyridine] | 2780 | 230 | 23 | 338 |
| CN(C)CCOc1cncc(-c2ccc3[nH]nc(-c4cc5c(-c6cccnc6)cccc5[nH]4)c3n2)c1 [Compound 591, N,N-Dimethyl-2-((5-(3-(4-(pyridin-3-yl)-1H-indol-2-yl)-1H-pyrazolo[4,3-b]pyridin-5-yl)pyridin-3-yl)oxy)ethan-1-amine] | 1090 | 1160 | 17 | 4280 |
| Cc1ncc(-c2ccc3[nH]nc(-c4cc5ccccc5[nH]4)c3n2)n1C [Compound 681, 5-(1,2-Dimethyl-1H-imidazol-5-yl)-3-(1H-indol-2-yl)-1H-pyrazolo[4,3-b] pyridine] | 728 | 279 | 17 | 640 |
| CS(=O)(=O)NCc1cc(F)cc(-c2cccc3[nH]c(-c4n[nH]c5ccc(C6CCNCC6)nc45)cc23)c1 [Compound 789, N-(3-Fluoro-5-(2-(5-(piperidin-4-yl)-1H-pyrazolo[4,3-b]pyridin-3-yl)-1H-indol-4-yl)benzyl)methanesulfonamide] | 5180 | 9630 | 2250 | 2950 |
| CS(=O)(=O)NCc1cc(F)cc(-c2cccc3[nH]c(-c4n[nH]c5ccc(-c6cncc(OCc7ccccc7)c6)nc45)cc23)c1 [Compound 802, N-(3-(2-(5-(5-(Benzyloxy)pyridin-3-yl)-1H-pyrazolo[4,3-b]pyridin-3-yl)-1H-indol-4-yl)-5-fluorobenzyl)methanesulfonamide] | 1190 | 276 | 473 | 433 |
